From ChEMBL document CHEMBL1154370, “Palmyramide A, a cyclic depsipeptide from a Palmyra Atoll collection of the marine cyanobacterium Lyngbya majuscula” (J Nat Prod, 2010) come the findings set out here.

The structures appear in SMILES notation. pIC50: −log10 of the molar value.

Experiment [1] can be described thus: Inhibition of voltage-gated sodium channel in mouse Neuro2a cells assessed as suppression of quabain and veratridine-induced sodium overload cytotoxicity after 24 hrs by MTT assay. Conditions: N2a. It counts as cell-based. (Tetrazolium assays rely on reduction of a dye to a coloured formazan, in cell work by metabolically active cells.)
The subject of a further experiment is NCI-H460. Kind of experiment: Cytotoxicity against human H460 cells after 48 hrs by MTT assay. It counts as functional, cell-based. Conditions: NCI-H460, 48 h.

One may read the pIC50 as the IC50 on a negative log10 scale, so that one unit is a factor of ten. For `CCC[C@H]1OC(=O)[C@H](C(C)C)NC(=O)[C@@H](C(C)C)N(C)C(=O)[C@@H]2CCCN2C(=O)[C@H](Cc2ccccc2)OC(=O)[C@H](C)OC(=O)C1(C)C` [PALMYRAMIDE A], the pIC50 in experiment [1] is 4.76; in the experiment with NCI-H460 it was 4.40.
